Target: T1, VPg unlinkase (Homo sapiens, UniProt O95551)
T1 construct: To generate the HeLa cell homogenate used for the isolation of VPg unlinkase, 5 ml of packed HeLa cells were homogenized; endogenous in cells; host or cells: HeLa cells (uninfected); enzyme fractionated from total cell homogenate
T1 sequence (O95551 1-362): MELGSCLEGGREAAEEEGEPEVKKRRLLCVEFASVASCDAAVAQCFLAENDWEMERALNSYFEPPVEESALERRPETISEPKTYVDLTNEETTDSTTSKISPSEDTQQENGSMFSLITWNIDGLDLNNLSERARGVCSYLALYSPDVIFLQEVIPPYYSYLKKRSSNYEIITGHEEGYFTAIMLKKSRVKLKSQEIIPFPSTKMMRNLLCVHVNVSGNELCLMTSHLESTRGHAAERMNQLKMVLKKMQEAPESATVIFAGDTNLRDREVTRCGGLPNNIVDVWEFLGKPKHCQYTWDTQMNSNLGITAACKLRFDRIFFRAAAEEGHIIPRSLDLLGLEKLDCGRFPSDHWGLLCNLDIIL
Type: biochemical

Q: For `Cl.Nc1ncnc2c1ncn2[C@@H]1O[C@H](COC(=O)c2ccc(S(=O)(=O)F)cc2)[C@@H](O)[C@H]1O` [5′FSBA], which “suppression of unlinkase activity” value is on record?
A: effectively suppressed unlinkase activity

Source: patent US20160243149A1, “NOVEL ANTI-VIRAL THERAPEUTIC” (priority 2012, published 2016)
